Target: T1, Interleukin-6 / anti-IL-6 antibody binding (Homo sapiens, UniProt P05231)
T1 construct: purchased Amersham RPN 2754
Experiment: IL-6 ELISA standard curves with lysis reagent and sequestrant
Conditions: 1% DTAB in standards
Method: Working standards (10.24400 pg/ml IL-6) were prepared in polypropylene tubes using assay buffer containing 1% (w/v) DTAB. The biotinylated antibody was prepared in buffer containing 3% (w/v) alpha-cyclodextrin. 50 μl of biotinylated antibody (containing cyclodextrin) was added to the anti-IL-6 coated plate. 50 μl of working standard and cell lysate was pipetted into separate wells of the anti-IL-6 coated plate. Non-specific binding was measured in the absence of IL-6 (zero IL-6 standard). The order of addition of biotinylated antibody and samples/standards is not critical to the procedure. […] The optical density was determined with a microtitre plate spectrophotometer set at 450 nm. Interleukin-6 levels were determined using log/linear analysis with reference to a standard curve. […]
(§1) Interleukin-6 standards (10.24-400 pg/ml) were prepared in standard diluent either in the presence (□) or absence (●) of lysis reagent (1% w/v DTAB). […] The plate was incubated for 2 hours at room temperature, and the optical density measured as described under the methods section.
as §1

T1 sequence (P05231 30-212): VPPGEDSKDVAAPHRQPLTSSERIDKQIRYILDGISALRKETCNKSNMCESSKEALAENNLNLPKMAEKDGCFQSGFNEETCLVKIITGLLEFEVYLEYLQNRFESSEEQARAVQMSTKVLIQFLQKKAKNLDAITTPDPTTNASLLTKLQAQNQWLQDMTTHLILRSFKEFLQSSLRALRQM

Row | Structure (SMILES) | antibody binding in the IL-6 ELISA (3% (w/v) alpha-cyclodextrin in biotinylated antibody) | antibody binding in the IL-6 ELISA (zero cyclodextrin)
1 | OC[C@H]1O[C@@H]2O[C@H]3[C@H](O)[C@@H](O)[C@@H](O[C@H]4[C@H](O)[C@@H](O)[C@@H](O[C@H]5[C@H](O)[C@@H](O)[C@@H](O[C@H]6[C@H](O)[C@@H](O)[C@@H](O[C@H]7[C@H](O)[C@@H](O)[C@@H](O[C@H]1[C@H](O)[C@H]2O)O[C@@H]7CO)O[C@@H]6CO)O[C@@H]5CO)O[C@@H]4CO)O[C@@H]3CO [CD, alpha-cyclodextrin] | Binding was restored | –
2 | CCCCCCCCCCCC[N+](C)(C)C.[Br-] [DTAB, dodecyl trimethyl ammonium bromide] | – | inhibition of antibody binding

— patent US6900019B1, “In-situ cell extraction and assay method” (Amersham Biosciences UK Limited, priority 1997, dated 2005)
